Assay results published in patent publication US9382295B2, “Cyclic depsipeptide compounds and their uses” (Cypralis Limited, priority 2012, dated 2016).
Converted amounts (≈) assume the structure as drawn. Read-outs that look alike come from different tables or passages of the source. Numbered stars: 1 amine (or outer) side, 2 acyl side, 3 side chain; on linkers, the order of the positions; unused ones are H or OH. Square brackets hold non-standard residues; d marks the D form. Peptide text beside a SMILES is read from it. X2 = C[C@H](CCCc1cccc(N2CCOCC2)n1)[C@@H](O)[C@H](C(=O)[*:2])N(C)[*:1]; X32 = CC(=O)N(CC[C@@H](C)[C@@H](O)[C@H](C(=O)[*:2])N(C)[*:1])C(C)C; X5 = C[C@H](CCN1CCS(=O)(=O)CC1)[C@@H](O)[C@H](C(=O)[*:2])N(C)[*:1]; X3 = C[C@H](CCN1CC2CCC(C1)O2)[C@@H](O)[C@H](C(=O)[*:2])N(C)[*:1]; X1 = Cc1cccc(CCC[C@@H](C)[C@@H](O)[C@H](C(=O)[*:2])N(C)[*:1])n1; X4 = C[C@H](C/C=C/c1ncccn1)[C@@H](O)[C@H](C(=O)[*:2])N(C)[*:1]; X15 = C[C@H](CCN1CCCCC1CO)[C@@H](O)[C@H](C(=O)[*:2])N(C)[*:1]; d(aThr) = C[C@@H](O)[C@@H](N)C(=O)O; NMeL = CN[C@@H](CC(C)C)C(=O)O; dNMeL = CN[C@H](CC(C)C)C(=O)O; dNMeV = CN[C@@H](C(=O)O)C(C)C; Hiv = CC(C)[C@H](O)C(=O)O; Sar = CNCC(=O)O

Assays:
[1] = molecular target: T1, calcineurin/cyclophilin A (Homo sapiens, UniProt P62937+P63098+Q08209); test: Calcineurin phosphatase (CaN) assay in the presence of Cyp A; format: biochemical; settings: inhibitor in 1:1 complex with Cyp A; read-out: CaN + CypA (IC50 in the calcineurin/cyclophilin A assay)
T1 construct: purchased Enzo Life Sciences (calcineurin, calmodulin); Sigma (CypA) BML-AK804; C3805
T1 sequence (P63098 whole entry, other chains not shown): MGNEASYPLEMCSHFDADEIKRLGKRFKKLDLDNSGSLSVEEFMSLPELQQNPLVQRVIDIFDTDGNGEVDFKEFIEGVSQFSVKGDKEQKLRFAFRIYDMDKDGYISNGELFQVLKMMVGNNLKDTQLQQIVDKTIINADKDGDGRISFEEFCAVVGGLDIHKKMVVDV
T1 sequence (P62937 whole entry, other chains not shown): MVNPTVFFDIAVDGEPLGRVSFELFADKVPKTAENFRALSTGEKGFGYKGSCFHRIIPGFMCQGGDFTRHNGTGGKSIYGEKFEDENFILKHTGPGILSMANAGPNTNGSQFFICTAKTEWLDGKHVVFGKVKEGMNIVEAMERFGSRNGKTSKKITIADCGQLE
Text: **Calcineurin Phosphatase (CaN) Assay The calcineurin phosphatase assay is a means for estimating the immunosuppressive potential of a test compound. Calcineurin is a serine-threonine protein phosphatase that on activation dephosphorylates members of the nuclear factor of activated T cells (NFAT), which are important in T lymphocyte activation. […] To investigate the immunosuppressive potential of exemplary compounds of Formula 1, which are novel cycloundecadepsipeptide compounds, their ability to inhibit calcineurin activity was measured in the presence of Cyp A. The CaN assay kit used is based on a colorimetric assay for measuring calcineurin phosphatase activity, and it is commercially available (Enzo Life Sciences and Calbiochem). Calmodulin is also required for calcineurin activity and RH phosphopeptide is used as an efficient peptide substrate for calcineurin. […] The detection of free phosphate released is based on the classic Malachite green assay. Enzo Life Sciences CaN Assay Kit: BML-AK804 2× assay buffer: 100 mM Tris, pH7.5, 200 mM NaCl, 12 mM MgCl2, 1 mM DTT, 0.05% NP-40, 1 mM CaCl2 Calmodulin (Human, Recombinant): was thawed on ice, diluted 1:50 with 2× assay buffer, and then stored on ice. Calcineurin: was thawed quickly, stored on ice immediately, diluted 1:12.5 with 1× assay buffer, and then stored on ice. R-II Substrate: 915 μL ultrapure water (UPW) was added to the 1.5 mg vial substrate to give a final concentration of 0.75 mM. Inhibitors: 2.5 mM inhibitor in 100% DMSO. Cyp A: recombinant human CypA (Sigma C3805), 1 mg/ml; Recombinant 6-his tagged CypA prepared by the Univ. of Edinburgh was also used. […] Inhibitor dilutions: inhibitor compounds were diluted in UPW in polypropylene low-binding 96 well plates at 5x the final assay concentration. For samples ‘without Cyp A’, a 4-point dilution series of the inhibitor was prepared in duplicate to obtain a final assay concentration of 10, 1, 0.1 and 0.01 μM. […] Cs A inhibitor controls were also prepared to obtain a final concentration of 10 μM Cs A with and without 10 μM Cyp A. Assay Setup: using the half area 96 well plates supplied with the kit, 10 μl UPW was added to duplicate wells to provide the non-inhibited control. 10 μl of the inhibitor or the inhibitor/Cyp A complex was added to the appropriate sample wells. 25 μl of the 2× assay buffer with CaM was added to all wells, then 5 μl of CaN was added to all wells (40 U per well final concentration) except duplicate ‘no calcineurin blank’ wells to which 5 μL 1× assay buffer was added. […] The reaction was started by the addition of 10 μl RII-peptide (0.15 mM final concentration). The reaction was allowed to proceed at 30° C. for a time period in which the reaction is linear for about 60 minutes. The reaction was then terminated by adding 100 μl of the Malachite Green reagent. […] The data were analyzed by subtracting ‘no Calcineurin blank’ from all the absorbance readings and plotting the background corrected absorbances against Log10 inhibitor concentration. A sigmoidal-dose response curve was fitted to the data using GraphPad Prism Software. […] It exerts its immunosuppressive activity by binding to cyclophilin A to form a complex, which then binds to calcineurin and thereby inhibits calcineurin activity.

[2] = molecular target: T2, cyclophilin A (Cyp A) (Homo sapiens, UniProt P62937); test: Protease-free PPIase assay, cyclophilin A; format: biochemical
T2 construct: purchased Sigma C3805
T2 sequence (P62937 whole entry): as the sequence (P62937 whole entry, other chains not shown) above
In short: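 Protease-free cis-trans isomerisation: 2 nM recombinant human cyclophilin A with 60 μM succinimide-peptide substrate in 35 mM HEPES pH 7.8 plus DTT, at 10.0 °C, max 0.5% DMSO. Absorbance at 330 nm was fitted to first-order kinetics, background subtracted, and catalytic rates versus inhibitor concentration gave Ki.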

[3] = Water solubility assay (pH 7.8 buffer); format: physicochemical
In short: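 DMSO stocks were diluted into 35 mM HEPES pH 7.8 to final 0–100 μM with 1% DMSO, in triplicate. Plates were shaken 18 h at 25 °C, then precipitation was detected as increased absorbance at 650 nm. Values give the concentration (μM) at which the compound remains in solution.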

[4] = molecular target: cyclophilin D (Cyp D) (Homo sapiens, UniProt P30405); test: Protease-free PPIase assay, cyclophilin D; format: biochemical
Chain of cyclophilin D (Cyp D) (P30405 30-207): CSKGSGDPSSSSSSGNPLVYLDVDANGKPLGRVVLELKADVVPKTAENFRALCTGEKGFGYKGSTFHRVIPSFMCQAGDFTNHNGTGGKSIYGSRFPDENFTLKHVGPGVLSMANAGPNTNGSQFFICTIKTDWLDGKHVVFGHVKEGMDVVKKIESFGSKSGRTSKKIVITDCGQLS
In short: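 Cis-trans isomerization of a succinimide-peptide substrate (60 µM final) by 2 nM enzyme was followed at 330 nm in 35 mM HEPES pH 7.8 with 50 µM DTT, stirred at 10.0 °C, DMSO ≤0.5%. First-order rate constants minus background were fitted against inhibitor concentration to give Ki.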

Row | Compound | IC50 [1] [nM] | Ki [2] [nM] | solubility at 18 h ([3]; pH 7.8) [µM] | Ki [4] [nM] | Ki ([2]; protease-free PPIase assay, class symbols, read-out: CypA Ki) [nM] | solubility at 18 h ([3]; 35 mM HEPES buffer, 35 mM HEPES pH 7.8, 1% DMSO, 25° C., 18 h, concentration at which compound remains in solution, read-out: Solubility) [µM] | Ki ([4]; protease-free PPIase assay, class symbols, read-out: CypD Ki) [nM]
1 | CC(C)C[C@@H]1C(=O)N[C@H](CC(C)C)C(=O)N(C)[C@H](C(C)C)C(=O)N(C)[C@H]([C@H](O)[C@H](C)CCCc2cccc(N3CCOCC3)n2)C(=O)N[C@H]([C@@H](C)O)C(=O)N(C)CC(=O)N(C)[C@@H](CC(C)C)C(=O)N[C@H](CC(C)C)C(=O)N(C)[C@H](CC(C)C)C(=O)N[C@H](C)C(=O)O[C@@H](C(C)C)C(=O)N1C [Example 20, cyclo-[(3R,4R,5S)-4-(hydroxy)-3-methyl-5-(methylamino)-1-(6-morpholin-4-yl-pyridin-2-yl)-heptanoic acid-Thr-Sar-MeLeu-Leu-MeLeu-Ala-D-Hiv-MeLeu-Leu-MeVal]] (cyclo([Hiv][dNMeL][dL][dNMeV][X2][d(aThr)][Sar][NMeL][dL][dNMeL][dA])) | > 5000 |  |  |  | 1 to 25 | 10 to 25 (≈ 14 to 34.9 µg/mL) | 1 to 25
2 | CC(C)C[C@@H]1C(=O)N[C@H](CC(C)C)C(=O)N(C)[C@H](C(C)C)C(=O)N(C)[C@H]([C@H](O)[C@H](C)CCN2CCS(=O)(=O)CC2)C(=O)N[C@H]([C@@H](C)O)C(=O)N(C)CC(=O)N(C)[C@@H](CC(C)C)C(=O)N[C@H](CC(C)C)C(=O)N(C)[C@H](CC(C)C)C(=O)N[C@H](C)C(=O)O[C@@H](C(C)C)C(=O)N1C [Example 23, cyclo-[(3R,4R,5S)-4-(hydroxy)-3-methyl-5-(methylamino)-1-N-(thiomorpholine 1,1-dioxide)-hexanoic acid-Thr-Sar-MeLeu-Leu-MeLeu-Ala-D-Hiv-MeLeu-Leu-MeVal]] (cyclo([Hiv][dNMeL][dL][dNMeV][X5][d(aThr)][Sar][NMeL][dL][dNMeL][dA])) | > 10000 | 1 to 25 | 75 to 100 (≈ 102 to 135 µg/mL) | 1 to 25 |  |  | 
3 | CC(=O)N(CC[C@@H](C)[C@@H](O)[C@@H]1C(=O)N[C@H]([C@@H](C)O)C(=O)N(C)CC(=O)N(C)[C@@H](CC(C)C)C(=O)N[C@H](CC(C)C)C(=O)N(C)[C@H](CC(C)C)C(=O)N[C@H](C)C(=O)O[C@@H](C(C)C)C(=O)N(C)[C@H](CC(C)C)C(=O)N[C@H](CC(C)C)C(=O)N(C)[C@H](C(C)C)C(=O)N1C)C(C)C [Example 38, cyclo-[(3R,4R,5S)-1-(acetyl-isopropyl-amino)-4-hydroxy-3-methyl-5-methylamino-hexanoic acid-Thr-Sar-MeLeu-Leu-MeLeu-Ala-D-Hiv-MeLeu-Leu-MeVal]] (cyclo([Hiv][dNMeL][dL][dNMeV][X32][d(aThr)][Sar][NMeL][dL][dNMeL][dA])) |  | 25 to 100 | 50 to 75 (≈ 66 to 99.1 µg/mL) | 1 to 25 |  |  | 
4 | CC(C)C[C@@H]1C(=O)N[C@H](CC(C)C)C(=O)N(C)[C@H](C(C)C)C(=O)N(C)[C@H]([C@H](O)[C@H](C)CCN2CCCCC2CO)C(=O)N[C@H]([C@@H](C)O)C(=O)N(C)CC(=O)N(C)[C@@H](CC(C)C)C(=O)N[C@H](CC(C)C)C(=O)N(C)[C@H](CC(C)C)C(=O)N[C@H](C)C(=O)O[C@@H](C(C)C)C(=O)N1C (stereo partly drawn) [Example 39, cyclo-[(2R,3R,4S)-4-hydroxy-1-(2-hydroxymethyl-piperidin-1-yl)-3-methyl-5-methylamino-hexanoic acid-Thr-Sar-MeLeu-Leu-MeLeu-Ala-D-Hiv-MeLeu-Leu-MeVal]] (cyclo([Hiv][dNMeL][dL][dNMeV][X15][d(aThr)][Sar][NMeL][dL][dNMeL][dA])) |  | 100 to 300 | > 100 | 25 to 100 |  |  | 

Other lines, results leading:

Row | IC50 [1] [nM] | Ki [2] [nM] | solubility at 18 h ([3]; pH 7.8) [µM] | Ki [4] [nM] | Ki ([2]; protease-free PPIase assay, class symbols, read-out: CypA Ki) [nM] | solubility at 18 h ([3]; 35 mM HEPES buffer, 35 mM HEPES pH 7.8, 1% DMSO, 25° C., 18 h, concentration at which compound remains in solution, read-out: Solubility) [µM] | Ki ([4]; protease-free PPIase assay, class symbols, read-out: CypD Ki) [nM] | Compound
5 | 70 | 1.7 | 10 to 25 (≈ 12.5 to 31.2 µg/mL) | 3.2 |  |  |  | C/C=C/C[C@@H](C)[C@@H](O)[C@@H]1C(=O)N[C@H]([C@@H](C)O)C(=O)N(C)CC(=O)N(C)[C@@H](CC(C)C)C(=O)N[C@H](CC(C)C)C(=O)N(C)[C@H](CC(C)C)C(=O)N[C@H](C)C(=O)O[C@@H](C(C)C)C(=O)N(C)[C@H](CC(C)C)C(=O)N[C@H](CC(C)C)C(=O)N(C)[C@H](C(C)C)C(=O)N1C [Example 1, Cyclo-(MeBmt-Thr-Sar-MeLeu-Leu-MeLeu-Ala-D-Hiv-MeLeu-Leu-MeVal), reference compound]
6 | > 1000 | 1 to 25 | 10 to 25 (≈ 13.1 to 32.8 µg/mL) | 1 to 25 |  |  |  | CC(C)C[C@@H]1C(=O)N[C@H](CC(C)C)C(=O)N(C)[C@H](C(C)C)C(=O)N(C)[C@H]([C@H](O)[C@H](C)C/C=C/c2ncccn2)C(=O)N[C@H]([C@@H](C)O)C(=O)N(C)CC(=O)N(C)[C@@H](CC(C)C)C(=O)N[C@H](CC(C)C)C(=O)N(C)[C@H](CC(C)C)C(=O)N[C@H](C)C(=O)O[C@@H](C(C)C)C(=O)N1C [Example 15, cyclo-{(3R,4R,5S)-4-(hydroxy)-3-methyl-5-(methylamino)-1-(pyrimidin-2-yl)-hept-1-enoic acid-Thr-Sar-MeLeu-Leu-MeLeu-Ala-D-Hiv-MeLeu-Leu-MeVal}] (cyclo([Hiv][dNMeL][dL][dNMeV][X4][d(aThr)][Sar][NMeL][dL][dNMeL][dA]))
7 | > 1000 | 1 to 25 | 10 to 25 (≈ 13.3 to 33.2 µg/mL) | 1 to 25 |  |  |  | Cc1cccc(CCC[C@@H](C)[C@@H](O)[C@@H]2C(=O)N[C@H]([C@@H](C)O)C(=O)N(C)CC(=O)N(C)[C@@H](CC(C)C)C(=O)N[C@H](CC(C)C)C(=O)N(C)[C@H](CC(C)C)C(=O)N[C@H](C)C(=O)O[C@@H](C(C)C)C(=O)N(C)[C@H](CC(C)C)C(=O)N[C@H](CC(C)C)C(=O)N(C)[C@H](C(C)C)C(=O)N2C)n1 [Example 17] (cyclo([Hiv][dNMeL][dL][dNMeV][X1][d(aThr)][Sar][NMeL][dL][dNMeL][dA]))
8 | > 10000 | 1 to 25 | 25 to 50 (≈ 33.3 to 66.6 µg/mL) | 1 to 25 |  |  |  | CC(C)C[C@@H]1C(=O)N[C@H](CC(C)C)C(=O)N(C)[C@H](C(C)C)C(=O)N(C)[C@H]([C@H](O)[C@H](C)CCN2CC3CCC(C2)O3)C(=O)N[C@H]([C@@H](C)O)C(=O)N(C)CC(=O)N(C)[C@@H](CC(C)C)C(=O)N[C@H](CC(C)C)C(=O)N(C)[C@H](CC(C)C)C(=O)N[C@H](C)C(=O)O[C@@H](C(C)C)C(=O)N1C [Example 22, cyclo-[(3R,4R,5S)-4-(hydroxy)-3-methyl-5-(methylamino)-1-N-(8-oxa-3-aza-bicyclo[3.2.1]octane)-hexanoic acid-Thr-Sar-MeLeu-Leu-MeLeu-Ala-D-Hiv-MeLeu-Leu-MeVal]] (cyclo([Hiv][dNMeL][dL][dNMeV][X3][d(aThr)][Sar][NMeL][dL][dNMeL][dA]))
